BigSolDB 2.1

Q: Which results are given for `O=C1/C(=C/c2ccc(O)cc2)CCC/C1=C\c1ccc(O)cc1`?
A: solubility (mole fraction) (in 1,4-dioxane, 299.15 K): 0.0074; solubility (mole fraction) (in 1,4-dioxane, 303.15 K): 0.0085; solubility (mole fraction) (in 1,4-dioxane, 308.15 K): 0.0101; solubility (mole fraction) (in 1,4-dioxane, 313.15 K): 0.0115; solubility (mole fraction) (in 1,4-dioxane, 318.15 K): 0.0135; solubility (mole fraction) (in 1,4-dioxane, 323.15 K): 0.0153; solubility (mole fraction) (in 1,4-dioxane, 328.15 K): 0.0172; solubility (mole fraction) (in DMF, 299.15 K): 0.0332; solubility (mole fraction) (in DMF, 303.15 K): 0.0388; solubility (mole fraction) (in DMF, 308.15 K): 0.0458; solubility (mole fraction) (in DMF, 313.15 K): 0.0556; solubility (mole fraction) (in DMF, 318.15 K): 0.0658; solubility (mole fraction) (in DMF, 323.15 K): 0.0816; solubility (mole fraction) (in DMF, 328.15 K): 0.106; solubility (mole fraction) (in DMSO, 299.15 K): 0.0112; solubility (mole fraction) (in DMSO, 303.15 K): 0.0132; solubility (mole fraction) (in DMSO, 308.15 K): 0.0156; solubility (mole fraction) (in DMSO, 313.15 K): 0.0251; solubility (mole fraction) (in DMSO, 318.15 K): 0.0371; solubility (mole fraction) (in DMSO, 323.15 K): 0.0528; solubility (mole fraction) (in DMSO, 328.15 K): 0.0742; solubility (mole fraction) (in THF, 299.15 K): 0.023; solubility (mole fraction) (in THF, 303.15 K): 0.0256; solubility (mole fraction) (in THF, 308.15 K): 0.0281; solubility (mole fraction) (in THF, 313.15 K): 0.0319; solubility (mole fraction) (in THF, 318.15 K): 0.0387; solubility (mole fraction) (in THF, 323.15 K): 0.0461; solubility (mole fraction) (in THF, 328.15 K): 0.0527; solubility (mole fraction) (in acetic acid, 299.15 K): 0.0032; solubility (mole fraction) (in acetic acid, 303.15 K): 0.0034; solubility (mole fraction) (in acetic acid, 308.15 K): 0.0036; solubility (mole fraction) (in acetic acid, 313.15 K): 0.0039; solubility (mole fraction) (in acetic acid, 318.15 K): 0.0044; solubility (mole fraction) (in acetic acid, 323.15 K): 0.0052; solubility (mole fraction) (in acetic acid, 328.15 K): 0.0063; solubility (mole fraction) (in acetone, 299.15 K): 0.0049; solubility (mole fraction) (in acetone, 303.15 K): 0.0061; solubility (mole fraction) (in acetone, 308.15 K): 0.0073; solubility (mole fraction) (in acetone, 313.15 K): 0.0093; solubility (mole fraction) (in acetone, 318.15 K): 0.0114; solubility (mole fraction) (in acetone, 323.15 K): 0.0128; solubility (mole fraction) (in acetone, 328.15 K): 0.0147; solubility (mole fraction) (in ethyl acetate, 299.15 K): 0.0021; solubility (mole fraction) (in ethyl acetate, 303.15 K): 0.0031; solubility (mole fraction) (in ethyl acetate, 308.15 K): 0.004; solubility (mole fraction) (in ethyl acetate, 313.15 K): 0.0053; solubility (mole fraction) (in ethyl acetate, 318.15 K): 0.0069; solubility (mole fraction) (in ethyl acetate, 323.15 K): 0.0102; solubility (mole fraction) (in ethyl acetate, 328.15 K): 0.0136; solubility (mole fraction) (in methanol, 299.15 K): 0.0034; solubility (mole fraction) (in methanol, 303.15 K): 0.0041; solubility (mole fraction) (in methanol, 308.15 K): 0.0051; solubility (mole fraction) (in methanol, 313.15 K): 0.0066; solubility (mole fraction) (in methanol, 318.15 K): 0.0086; solubility (mole fraction) (in methanol, 323.15 K): 0.0102; solubility (mole fraction) (in methanol, 328.15 K): 0.0129; solubility (mole fraction) (in n-butanol, 299.15 K): 0.0134; solubility (mole fraction) (in n-butanol, 303.15 K): 0.0142; solubility (mole fraction) (in n-butanol, 308.15 K): 0.0152; solubility (mole fraction) (in n-butanol, 313.15 K): 0.0164; solubility (mole fraction) (in n-butanol, 318.15 K): 0.0178; solubility (mole fraction) (in n-butanol, 323.15 K): 0.021; solubility (mole fraction) (in n-butanol, 328.15 K): 0.0235; solubility (mole fraction) (in n-propanol, 299.15 K): 0.0013; solubility (mole fraction) (in n-propanol, 303.15 K): 0.0023; solubility (mole fraction) (in n-propanol, 308.15 K): 0.0036; solubility (mole fraction) (in n-propanol, 313.15 K): 0.0056; solubility (mole fraction) (in n-propanol, 318.15 K): 0.0086; solubility (mole fraction) (in n-propanol, 323.15 K): 0.0123; solubility (mole fraction) (in n-propanol, 328.15 K): 0.0169
